Measured values: US10392368B2, “Pyrazolo and triazolo bicyclic compounds as JAK kinase inhibitors” (THERAVANCE BIOPHARMA R&D IP, LLC, priority 2017, dated 2019)

Tests used:
JAK3 = molecular target: T1, JAK3 (Homo sapiens, UniProt P52333); assay: Co-crystal structures bound to human JAK3; settings: ATP binding site of human JAK3
T1 sequence (P52333 1-1124): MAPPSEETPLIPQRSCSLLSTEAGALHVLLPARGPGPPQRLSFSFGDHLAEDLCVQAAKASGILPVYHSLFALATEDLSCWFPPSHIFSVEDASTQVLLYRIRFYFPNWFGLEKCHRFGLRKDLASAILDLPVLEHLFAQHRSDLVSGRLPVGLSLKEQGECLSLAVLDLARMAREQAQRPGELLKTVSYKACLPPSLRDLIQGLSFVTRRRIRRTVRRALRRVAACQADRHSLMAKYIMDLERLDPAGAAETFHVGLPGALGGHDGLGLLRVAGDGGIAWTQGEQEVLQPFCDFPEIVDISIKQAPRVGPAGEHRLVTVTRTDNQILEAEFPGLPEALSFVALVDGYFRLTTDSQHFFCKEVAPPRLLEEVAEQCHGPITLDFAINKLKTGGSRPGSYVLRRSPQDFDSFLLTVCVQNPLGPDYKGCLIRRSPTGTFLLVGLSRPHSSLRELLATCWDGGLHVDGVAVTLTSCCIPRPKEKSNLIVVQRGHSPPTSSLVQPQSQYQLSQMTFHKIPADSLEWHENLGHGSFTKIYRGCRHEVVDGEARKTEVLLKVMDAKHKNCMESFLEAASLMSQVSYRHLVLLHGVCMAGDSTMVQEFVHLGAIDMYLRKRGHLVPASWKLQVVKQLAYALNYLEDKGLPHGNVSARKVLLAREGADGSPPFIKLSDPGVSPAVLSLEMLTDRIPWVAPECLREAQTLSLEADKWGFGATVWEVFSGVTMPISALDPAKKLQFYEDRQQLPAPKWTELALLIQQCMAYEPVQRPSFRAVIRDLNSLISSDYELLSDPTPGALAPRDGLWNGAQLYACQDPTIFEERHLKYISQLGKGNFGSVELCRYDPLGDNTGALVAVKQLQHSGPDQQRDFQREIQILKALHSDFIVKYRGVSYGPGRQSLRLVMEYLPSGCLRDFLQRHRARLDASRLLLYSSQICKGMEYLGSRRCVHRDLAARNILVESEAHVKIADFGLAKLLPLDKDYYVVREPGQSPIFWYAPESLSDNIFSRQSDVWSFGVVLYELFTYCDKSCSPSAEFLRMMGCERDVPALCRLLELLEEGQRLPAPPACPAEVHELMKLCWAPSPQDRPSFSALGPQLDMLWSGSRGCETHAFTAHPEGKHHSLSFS
From the text: Co-crystal structures were obtained for compounds 1, 3 and 4 each bound to human JAK3. The resolutions for the complex structures were at 2.73 Å, 2.80 Å, and 2.64 Å respectively for compound 1, compound 3 and compound 4. […] Based on a distance of less than 3.5 Å of the donor and acceptor atoms four specific hydrogen bonds were identified for each of the ligands, namely to the main chain atoms of Glu903, Leu905 and Phe968 as well as the side chain atoms of Glu871. An additional hydrogen bond was identified for compound 1 to the side chain atoms of Asp 912. […] The S—H moiety of the cysteine residue performs an addition reaction to the Michael system. The observed results of the covalent binding interaction in the crystal structures confirms the irreversible binding nature for each of these ligands to JAK3.

[1] = tested on: IL-2 stimulated pSTAT5 in CD4+ T cells; assay: Inhibition of IL-2 stimulated pSTAT5 in CD4+ T cells isolated from murine splenocytes; type: cell-based; settings: Mus musculus, AlphaLisa, read-out: pIC50, inhibition of IL-2 stimulated pSTAT5 (converted)
Method: The potency of test compounds for inhibition of interleukin-2 (IL-2) stimulated STAT5 phosphorylation was measured in the CD4+ T cells isolated from murine splenocytes using AlphaLisa. Because IL-2 signals through JAK3, this assay provides a measure of JAK3 cellular potency in mouse.
Phosphorylated STAT5 was measured via the AlphaLISA SureFire Ultra pSTAT5 (Tyr694/699) kit (PerkinElmer).
CD4+ T cells were isolated from murine splenocytes via negative selection on a magnetic column (Miltnyi Biotec) and re-suspended in assay media (phenol red-free DMEM (Life Technologies) supplemented with 10% FBS (ATCC)). Cells were seeded at 50,000 cells/well in assay media (2 μL/well). Compounds were serially diluted in DMSO and diluted to 2× final concentration in assay media. Compound was added (4 μl/well) and the cells incubated at 37° C., 5% CO2 for 1 hour, followed by the addition of IL-2 (R&D Systems; final concentration 7 ng/ml) in pre-warmed assay media (2 μL) for 30 minutes. After cytokine stimulation, cells were lysed with 2 μl of 5× AlphaLisa Lysis Buffer (PerkinElmer). The lysate was shaken at 900 rpm for 10 minutes at room temperature (RT). Phosphorylated STAT5 was measured via the pSTAT5 AlphaLisa kit (PerkinElmer). Freshly prepared acceptor bead mixture was dispensed onto lysate (5 ul) under green filtered <100 lux light. Plates were shaken at 900 rpm for 2 mins, briefly spun down, and incubated for 2 hrs at RT in the dark. Donor beads were dispensed (5 μl) under green filtered <100 lux light. Plates were shaken at 900 rpm for 2 mins, briefly spun down, and incubated overnight at RT in the dark. Luminescence was measured with excitation at 689 nm and emission at 570 nm using an EnVision plate reader (PerkinElmer) under green filtered <100 lux light.
To determine the inhibitory potency of test compounds in response to IL-2, the average emission intensity of beads bound to pSTAT5 was measured in primary CD4+ T cells isolated from murine splenocytes. IC50 values were determined from analysis of the inhibition curves of signal intensity vs compound concentration. Data are expressed as pIC50 (negative decadic logarithm IC50) values (mean±standard deviation).

SMILES | binding mode in co-crystal structure (JAK3) | IC50 [1]
CN(C)C/C=C/C(=O)N1CC(COc2cc(-c3ccc(O)cc3)cc3[nH]ncc23)C1 [Compound 1, (E)-4-(dimethylamino)-1-(3-(((6-(4-hydroxyphenyl)-1H-indazol-4-yl)oxy)methyl)azetidin-1-yl)but-2-en-1-one] | covalently bound to Cys909 of JAK3 | 
CN(C)C/C=C/C(=O)N1CC(C(C)(C)Oc2cc(-c3ccc(O)c(Cl)c3)cc3[nH]ncc23)C1 [Compound 3, (E)-1-(3-(2-((6-(3-chloro-4-hydroxyphenyl)-1H-indazol-4-yl)oxy)propan-2-yl)azetidin-1-yl)-4-(dimethylamino)but-2-en-1-one] | covalently bound to Cys909 of JAK3 | 
C=CC(=O)N1CC(COc2nc(-c3ccc(O)cc3)nc3[nH]ncc23)C1 [Compound 4, 1-(3-(((6-(4-hydroxyphenyl)-1H-pyrazolo[3,4-d]pyrimidin-4-yl)oxy)methyl)azetidin-1-yl)prop-2-en-1-one] | covalently bound to Cys909 of JAK3 | 
C=CC(=O)N1CC(C(C)(C)Oc2cc(-c3ccc(O)cc3)nc3[nH]ncc23)C1 [Compound 20, 1-(3-(2-((6-(4-hydroxyphenyl)-1H-pyrazolo[3,4-b]pyridin-4-yl)oxy)propan-2-yl)azetidin-1-yl)prop-2-en-1-one] |  | < 1000 nM
C=CC(=O)N1CC(C)(COc2nc(-c3ccc(O)c(F)c3)nc3[nH]ncc23)C1 [Compound 21, 1-(3-(((6-(3-fluoro-4-hydroxyphenyl)-1H-pyrazolo[3,4-d]pyrimidin-4-yl)oxy)methyl)-3-methylazetidin-1-yl)prop-2-en-1-one] |  | < 1000 nM
C=CC(=O)N1CC(CC)(COc2cc(-c3ccc(O)cc3)nc3[nH]ncc23)C1 [Compound 22, 1-(3-ethyl-3-(((6-(4-hydroxyphenyl)-1H-pyrazolo[3,4-b]pyridin-4-yl)oxy)methyl)azetidin-1-yl)prop-2-en-1-one] |  | < 1000 nM
